Results taken from PMC10967972, “Different Coactivator Recruitment to Human PPARα/δ/γ Ligand-Binding Domains by Eight PPAR Agonists to Treat Nonalcoholic Fatty Liver Disease” (Biomedicines, 2024).
Where two headings read alike, the source gives them in different places.

Legend:
Type in all cases: biochemical
[1] = molecular target: T1, human PPARα-LBD (Homo sapiens, UniProt Q07869); assay: TR-FRET coactivator recruitment assay, PPARα-LBD; set-up: extent of recruitment of all four coactivators to PPARα-LBD: reference not given here; conditions: for Approximate potency order in the recruitment of four coactivators, PPARα: evaluated based on EC50 values, PGC, PGC1α, SRC, SRC1, TRAP, TRAP220; for EC50: Buffer A
T1 construct: Human PPARα-LBD [amino acids (AAs) 200–468]; made in house
T1 sequence (Q07869 200-468): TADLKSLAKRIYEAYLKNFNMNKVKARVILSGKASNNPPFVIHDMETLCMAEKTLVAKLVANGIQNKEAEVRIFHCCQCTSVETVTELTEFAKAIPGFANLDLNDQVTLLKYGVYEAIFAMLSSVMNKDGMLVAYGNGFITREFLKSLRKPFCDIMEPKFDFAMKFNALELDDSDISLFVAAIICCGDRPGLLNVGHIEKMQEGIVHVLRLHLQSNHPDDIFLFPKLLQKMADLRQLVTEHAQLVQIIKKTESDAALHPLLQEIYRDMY

[2] = molecular target: T2, human PPARδ-LBD (Homo sapiens, UniProt Q03181); assay: TR-FRET coactivator recruitment assay, PPARδ-LBD
T2 construct: PPARδ-LBD (AAs 170–441); made in house
T2 sequence (Q03181 170-441): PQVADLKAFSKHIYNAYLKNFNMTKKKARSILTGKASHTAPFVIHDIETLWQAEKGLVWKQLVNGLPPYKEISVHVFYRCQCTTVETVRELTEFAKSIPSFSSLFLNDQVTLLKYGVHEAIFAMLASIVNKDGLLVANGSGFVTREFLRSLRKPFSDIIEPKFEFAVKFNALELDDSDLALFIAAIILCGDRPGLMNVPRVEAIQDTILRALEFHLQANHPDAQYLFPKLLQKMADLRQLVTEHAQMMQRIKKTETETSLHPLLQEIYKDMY

[3] = molecular target: T3, human PPARγ-LBD (Homo sapiens, UniProt P37231); assay: TR-FRET coactivator recruitment assay, PPARγ-LBD
T3 construct: PPARγ-LBD (AAs 203–477 in isoform 1); made in house
T3 sequence (P37231 203-477 isoform P37231-2): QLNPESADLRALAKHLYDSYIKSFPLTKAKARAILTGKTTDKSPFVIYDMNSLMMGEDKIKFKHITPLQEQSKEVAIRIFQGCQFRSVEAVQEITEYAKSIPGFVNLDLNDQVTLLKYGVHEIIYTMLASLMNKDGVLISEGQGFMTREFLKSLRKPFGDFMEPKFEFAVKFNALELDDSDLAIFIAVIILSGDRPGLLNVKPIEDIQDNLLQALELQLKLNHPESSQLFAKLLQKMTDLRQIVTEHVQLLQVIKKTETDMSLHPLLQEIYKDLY

[4] = read-out: PPARα CBP % of GW7647 max response
[5] = read-out: PPARα PGC1α % of GW7647 max response
[6] = read-out: PPARα SRC1 % of GW7647 max response
[7] = read-out: PPARα TRAP220 % of GW7647 max response
[8] = CBP peptide recruitment, Buffer A, read-out: PPARδ CBP EC50
[9] = PGC1α peptide recruitment, Buffer A, read-out: PPARδ PGC1α EC50
[10] = SRC1 peptide recruitment, Buffer A, read-out: PPARδ SRC1 EC50
[11] = TRAP220 peptide recruitment, Buffer A, read-out: PPARδ TRAP220 EC50
[12] = evaluated based on EC50 values, PGC, PGC1α, SRC, SRC1, TRAP, TRAP220
[13] = read-out: PPARδ CBP % of GW501516 max response
[14] = read-out: PPARδ PGC1α % of GW501516 max response
[15] = read-out: PPARδ SRC1 % of GW501516 max response
[16] = read-out: PPARδ TRAP220 % of GW501516 max response
[17] = CBP peptide recruitment, Buffer A, read-out: PPARγ CBP EC50
[18] = PGC1α peptide recruitment, Buffer A, read-out: PPARγ PGC1α EC50
[19] = SRC1 peptide recruitment, Buffer A, read-out: PPARγ SRC1 EC50
[20] = TRAP220 peptide recruitment, Buffer A, read-out: PPARγ TRAP220 EC50
[21] = read-out: PPARγ CBP % of GW1929 max response
[22] = read-out: PPARγ PGC1α % of GW1929 max response
[23] = read-out: PPARγ SRC1 % of GW1929 max response
[24] = read-out: PPARγ TRAP220 % of GW1929 max response
[25] = CBP peptide recruitment, read-out: PPARα CBP EC50
[26] = PGC1α peptide recruitment, read-out: PPARα PGC1α EC50
[27] = SRC1 peptide recruitment, read-out: PPARα SRC1 EC50
[28] = TRAP220 peptide recruitment, read-out: PPARα TRAP220 EC50

Compound	Approximate potency order in the recruitment of four coactivators, PPARα [1]	Emax [1, 4]	Emax [1, 5]	Emax [1, 6]	Emax [1, 7]	EC50 [2, 8]	EC50 [2, 9]	EC50 [2, 10]	EC50 [2, 11]	Approximate potency order in the recruitment of four coactivators, PPARδ [2, 12]	Emax [2, 13]	Emax [2, 14]	Emax [2, 16]	EC50 [3, 17]	EC50 [3, 18]	Emax [3, 21]	Emax [3, 22]	Emax [3, 23]	Emax [3, 24]	Emax [2, 15]	also measured
CC(C)(Oc1ccc(CCNC(=O)c2ccc(Cl)cc2)cc1)C(=O)O [Bezafibrate, bezafibrate]	CBP>PGC=TRAP>SRC	79.2%	74.5%	72.4%	76.4%						64.6%	90.3%	85.8%			68.7%	68.6%	34%	55.7%	50%	extent of recruitment of all four coactivators to PPARα-LBD [1]: 72.4–79.2%; recruitment of coactivators to PPARα-LBD (in words) ([1]; four coactivator peptides): recruited all four coactivators; Approximate potency order in the recruitment of four coactivators, PPARδ [2]: TRAP>PGC>CBP>SRC; recruitment of coactivators to PPARδ-LBD (in words) [2]: recruited all four coactivators; EC50 ([2]; PPARδ CBP EC50): 58.5 µM; EC50 ([2]; PPARδ TRAP220 EC50): 24.5 µM; EC50 ([2]; read-out: PPARδ PGC1α EC50): 35.8 µM; EC50 ([2]; read-out: PPARδ SRC1 EC50): 101 µM; Approximate potency order in the recruitment of four coactivators, PPARγ [3]: PGC=CBP=TRAP>SRC; recruitment of coactivators to PPARγ-LBD (in words) [3]: recruited all four coactivators; EC50 ([3]; PPARγ CBP EC50): 36.3 µM; EC50 ([3]; PPARγ PGC1α EC50): 41.8 µM; EC50 ([3]; PPARγ SRC1 EC50): 108 µM; EC50 ([3]; PPARγ TRAP220 EC50): 24.5 µM
CCc1ccc(CCOc2ccc(CC3SC(=O)NC3=O)cc2)nc1 (stereo not drawn) [Pioglitazone, pioglitazone]	CBP>>>PGC=SRC=TRAP	34.9%	13.9%	8.37%	3.67%					No activation	2.47%	4.53%	1.55%							1.19%	
GW1929																					PPARγ CBP maximal fold-induction of basal levels ([3]; CBP peptide, fold over no ligand): 14.7 ×; PPARγ PGC1α maximal fold-induction of basal levels ([3]; PGC1α peptide, fold over no ligand): 11.9 ×; PPARγ SRC1 maximal fold-induction of basal levels ([3]; SRC1 peptide, fold over no ligand): 12.6 ×; PPARγ TRAP220 maximal fold-induction of basal levels ([3]; TRAP220 peptide, fold over no ligand): 15.5 ×; maximal fold-induction from basal (no ligand) levels on the four coactivators, PPARγ ([3]; range over PGC1α, CBP, SRC1, TRAP220, Buffer A): 11.9–15.5 ×

Second part, led by results:

Approximate potency order in the recruitment of four coactivators, PPARα [1]	Emax [1, 4]	Emax [1, 5]	Emax [1, 6]	Emax [1, 7]	EC50 [2, 8]	EC50 [2, 9]	EC50 [2, 10]	EC50 [2, 11]	Approximate potency order in the recruitment of four coactivators, PPARδ [2, 12]	Emax [2, 13]	Emax [2, 14]	Emax [2, 16]	EC50 [3, 17]	EC50 [3, 18]	Emax [3, 21]	Emax [3, 22]	Emax [3, 23]	Emax [3, 24]	Compound	Emax [2, 15]	also measured
CBP>PGC=SRC>TRAP	96.7%	74.5%	101%	102%	8.64 µM	4.75 µM	14.9 µM	7.48 µM	PGC>CBP=TRAP>SRC	74.6%	91.1%	77.3%	5.58 µM	8.02 µM	80.3%	50.8%	27.7%	82.5%	CC[C@@H](Oc1cccc(CN(CCCOc2ccc(OC)cc2)c2nc3ccccc3o2)c1)C(=O)O [Pemafibrate, pemafibrate]	58.6%	recruitment of coactivators to PPARδ-LBD (in words) ([2]; four coactivator peptides): effective; EC50 [3, 19]: 13.8 µM; EC50 [3, 20]: 5.59 µM; Approximate potency order in the recruitment of four coactivators, PPARγ [3, 12]: CBP=TRAP>PGC>SRC
CBP>TRAP>PGC=SRC	71.7%	41.8%	49.3%	64.7%	3.72 µM	2.46 µM	6.97 µM	4.41 µM	PGC>CBP>TRAP>SRC	101%	103%	86.5%	2.64 µM	4.31 µM	83.3%	70.5%	46.1%	60.4%	O=C(O)CCCc1cc2cc(Cl)ccc2n1S(=O)(=O)c1ccc2ncsc2c1 [Lanifibranor, lanifibranor]	57.5%	EC50 [1, 25]: 4.02 µM; EC50 [1, 26]: 9.95 µM; EC50 [1, 27]: 10.4 µM; EC50 [1, 28]: 7.31 µM; recruitment of coactivators to PPARδ-LBD (in words) ([2]; four coactivator peptides): effective; EC50 [3, 19]: 7.69 µM; EC50 [3, 20]: 5.07 µM; Approximate potency order in the recruitment of four coactivators, PPARγ [3, 12]: CBP>PGC>TRAP>SRC
CBP>TRAP>PGC=SRC	80.2%	58.3%	54.2%	64.2%	> 100 µM	3.91 µM	> 100 µM	> 100 µM	Faint activation	6.72%	8.94%	2.5%	1.87 µM	2.46 µM	85%	50.1%	40%	52.4%	CCO[C@@H](Cc1ccc(OCCn2c(C)ccc2-c2ccc(SC)cc2)cc1)C(=O)O [Saroglitazar, saroglitazar]		EC50 [1, 25]: 0.28 µM; EC50 [1, 26]: 0.761 µM; EC50 [1, 27]: 0.814 µM; EC50 [1, 28]: 0.674 µM; EC50 [3, 19]: 5.55 µM; EC50 [3, 20]: 8.43 µM; Approximate potency order in the recruitment of four coactivators, PPARγ [3, 12]: CBP>PGC>TRAP=SRC
